Measured values from ChEMBL document CHEMBL4385620, “Inhibition of polypeptide N-acetyl-α-galactosaminyltransferases is an underlying mechanism of dietary polyphenols preventing colorectal tumorigenesis” (Bioorg Med Chem, 2019).
Calls of active or inactive are those of the source. No cut-off for these calls is given here.

Experiments:
[1] = biological target: T1, Polypeptide N-acetylgalactosaminyltransferase 2 (Homo sapiens, UniProt Q10471); assay: Binding affinity of human recombinant FLAG-tagged ppGalNAcT2 expressed in HEK293 cells assessed as dissociation constant by SPR analysis
T1 sequence (Q10471 whole entry): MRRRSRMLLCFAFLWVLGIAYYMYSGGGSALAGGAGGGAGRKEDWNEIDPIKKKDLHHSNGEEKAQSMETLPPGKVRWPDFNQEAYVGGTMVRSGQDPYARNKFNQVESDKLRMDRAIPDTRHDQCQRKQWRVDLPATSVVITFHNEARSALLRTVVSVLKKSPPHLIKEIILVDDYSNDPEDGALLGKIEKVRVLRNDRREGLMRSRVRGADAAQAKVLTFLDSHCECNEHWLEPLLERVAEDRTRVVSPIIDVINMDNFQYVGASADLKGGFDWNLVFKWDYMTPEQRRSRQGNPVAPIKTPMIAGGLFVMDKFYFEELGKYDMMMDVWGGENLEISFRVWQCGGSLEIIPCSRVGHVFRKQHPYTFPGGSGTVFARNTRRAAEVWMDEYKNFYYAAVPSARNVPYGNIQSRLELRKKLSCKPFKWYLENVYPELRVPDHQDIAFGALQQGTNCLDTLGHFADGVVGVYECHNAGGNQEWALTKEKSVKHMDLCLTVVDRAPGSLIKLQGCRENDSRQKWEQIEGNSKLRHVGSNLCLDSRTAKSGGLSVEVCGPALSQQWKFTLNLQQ

[2] = biological target: Polypeptide N-acetylgalactosaminyltransferase 14 (Homo sapiens, UniProt Q96FL9); assay: Inhibition of catalytic activity of ppGalNAcT14 (unknown origin) using EA2 peptide as substrate incubated for 30 mins by HPLC-based enzyme assay
Sequence of Polypeptide N-acetylgalactosaminyltransferase 14 (Q96FL9 whole entry): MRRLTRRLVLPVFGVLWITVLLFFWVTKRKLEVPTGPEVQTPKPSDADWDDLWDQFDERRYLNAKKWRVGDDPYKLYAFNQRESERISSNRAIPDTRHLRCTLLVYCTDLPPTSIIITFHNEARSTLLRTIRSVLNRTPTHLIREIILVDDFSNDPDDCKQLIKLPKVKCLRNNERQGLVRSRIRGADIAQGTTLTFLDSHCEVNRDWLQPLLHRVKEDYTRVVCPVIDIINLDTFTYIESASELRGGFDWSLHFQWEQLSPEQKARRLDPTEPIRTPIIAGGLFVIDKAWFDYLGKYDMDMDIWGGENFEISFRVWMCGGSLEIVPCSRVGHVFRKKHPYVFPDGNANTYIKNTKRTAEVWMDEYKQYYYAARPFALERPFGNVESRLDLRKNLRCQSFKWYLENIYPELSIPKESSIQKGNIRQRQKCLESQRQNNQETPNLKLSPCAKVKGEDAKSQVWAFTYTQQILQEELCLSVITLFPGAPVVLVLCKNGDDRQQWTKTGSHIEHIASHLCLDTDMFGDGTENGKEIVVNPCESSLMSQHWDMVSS

[3] = biological target: T2, Polypeptide N-acetylgalactosaminyltransferase 6 (Homo sapiens, UniProt Q8NCL4); assay: Inhibition of catalytic activity of ppGalNAcT6 (unknown origin) using EA2 peptide as substrate incubated for 30 mins by HPLC-based enzyme assay
T2 sequence (Q8NCL4 whole entry): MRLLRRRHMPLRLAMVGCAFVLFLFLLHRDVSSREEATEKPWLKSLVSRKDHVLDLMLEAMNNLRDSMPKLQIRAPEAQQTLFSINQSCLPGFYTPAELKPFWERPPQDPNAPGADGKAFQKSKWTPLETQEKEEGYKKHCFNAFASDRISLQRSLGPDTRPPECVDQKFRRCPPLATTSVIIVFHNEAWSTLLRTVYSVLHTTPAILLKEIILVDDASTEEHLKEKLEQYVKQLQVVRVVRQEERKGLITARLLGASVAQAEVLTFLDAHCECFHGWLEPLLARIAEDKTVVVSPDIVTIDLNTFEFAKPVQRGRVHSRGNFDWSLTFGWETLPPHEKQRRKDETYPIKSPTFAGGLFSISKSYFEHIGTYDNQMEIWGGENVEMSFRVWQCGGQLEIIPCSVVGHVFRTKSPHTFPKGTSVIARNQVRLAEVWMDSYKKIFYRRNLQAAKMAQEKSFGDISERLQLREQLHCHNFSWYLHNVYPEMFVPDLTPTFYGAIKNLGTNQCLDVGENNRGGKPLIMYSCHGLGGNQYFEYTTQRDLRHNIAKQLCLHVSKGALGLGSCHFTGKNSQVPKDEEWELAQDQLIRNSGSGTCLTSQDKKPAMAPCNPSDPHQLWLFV

[4] = biological target: T3, UDP-N-acetylglucosamine--peptide N-acetylglucosaminyltransferase 110 kDa subunit (Homo sapiens, UniProt O15294); assay: Inhibition of catalytic activity of OGT (unknown origin) using EA2 peptide as substrate incubated for 30 mins by HPLC-based enzyme assay
T3 sequence (O15294 whole entry): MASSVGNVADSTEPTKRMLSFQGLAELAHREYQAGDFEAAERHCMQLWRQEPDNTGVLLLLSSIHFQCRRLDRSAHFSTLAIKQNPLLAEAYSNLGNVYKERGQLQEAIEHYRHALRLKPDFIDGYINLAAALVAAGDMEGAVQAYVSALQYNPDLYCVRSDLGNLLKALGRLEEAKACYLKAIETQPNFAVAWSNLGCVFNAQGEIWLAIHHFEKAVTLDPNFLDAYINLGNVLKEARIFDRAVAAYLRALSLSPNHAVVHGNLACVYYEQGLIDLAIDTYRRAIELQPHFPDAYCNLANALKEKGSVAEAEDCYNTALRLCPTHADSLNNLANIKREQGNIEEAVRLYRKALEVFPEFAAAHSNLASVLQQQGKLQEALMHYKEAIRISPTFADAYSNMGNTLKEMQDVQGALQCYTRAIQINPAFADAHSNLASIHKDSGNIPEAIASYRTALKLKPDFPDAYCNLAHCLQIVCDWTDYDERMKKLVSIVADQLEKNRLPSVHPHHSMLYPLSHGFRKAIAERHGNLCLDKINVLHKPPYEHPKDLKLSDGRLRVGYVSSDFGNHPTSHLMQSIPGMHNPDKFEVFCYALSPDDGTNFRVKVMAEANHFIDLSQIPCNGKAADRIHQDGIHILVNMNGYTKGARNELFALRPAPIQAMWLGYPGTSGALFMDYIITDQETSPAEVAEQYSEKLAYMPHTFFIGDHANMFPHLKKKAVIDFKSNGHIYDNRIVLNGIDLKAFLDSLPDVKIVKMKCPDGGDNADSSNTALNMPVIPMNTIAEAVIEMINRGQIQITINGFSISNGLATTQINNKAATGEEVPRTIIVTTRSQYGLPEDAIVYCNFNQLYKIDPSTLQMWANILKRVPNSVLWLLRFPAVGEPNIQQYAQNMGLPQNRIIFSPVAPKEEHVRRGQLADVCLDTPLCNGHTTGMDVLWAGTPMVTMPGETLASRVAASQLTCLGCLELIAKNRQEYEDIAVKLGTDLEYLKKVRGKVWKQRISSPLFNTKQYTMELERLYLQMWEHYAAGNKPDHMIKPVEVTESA

[5] = biological target: T1, Polypeptide N-acetylgalactosaminyltransferase 2; assay: Inhibition of catalytic activity of human recombinant FLAG-tagged ppGalNAcT2 using Muc7 peptide as substrate incubated for 30 mins by HPLC-based enzyme assay
[6] = biological target: T1, Polypeptide N-acetylgalactosaminyltransferase 2; assay: Inhibition of ppGalNAcT2 in human HT-29 cells assessed as reduction in O-GalNAc glycans by measuring PNA lectin signal on cell surface at 40 uM incubated for 48 hrs by DAPI staining based immunofluorescence method
[7] = test system: HT-29; assay: Effect on ppGalNAcT7 expression level in human HT-29 cells at 40 uM incubated for 48 hrs by Q-PCR analysis; format: ADME, cell-based; conditions: ht-29, 48 h
[8] = test system: HCT-116; assay: Cytotoxicity against human HCT116 cells at 40 uM incubated for 48 hrs by CCK-8 assay; format: cell-based; conditions: hct-116, 48 h
[9] = biological target: T1, Polypeptide N-acetylgalactosaminyltransferase 2; assay: Inhibition of ppGalNAcT2 in human HT-29 cells assessed as reduction in PDPN O-GalNAc glycosylation by at 40 uM incubated for 48 hrs by jacalin lectin based immunoprecipitation analysis; format: cell-based
[10] = test system: HT-29; assay: Effect on PDPN expression level in human HT-29 cells at 40 uM incubated for 48 hrs by Q-PCR analysis; format: ADME, cell-based; conditions: ht-29, 48 h

`O=c1oc2c(O)c(O)ccc2c2cc(O)c(O)cc12` was tested, and the Kd [1] was 294 nM, the IC50 [2] was 460 nM and the IC50 [3] was 1830 nM. The IC50 [4] was greater than 100 µM, the IC50 [5] was 1250 nM and the inhibition [6] was “Active”. The Activity [7] was “Non-Toxic”, the Activity [8] was “Non-Toxic” and the inhibition [9] was “Active”. For the same molecule, the Activity [10] was “Non-Toxic”.
